Reference: patent US20200369674A1, “ANTI-PAIN COMPOUND AND PREPARATION METHOD THEREOF” (LUNAN PHARMACEUTICAL GROUP CORPORATION, priority 2017, published 2020)

How the values were obtained:
ICR mice [1] = experiment: Hot plate test; type: in vivo; settings: Mus musculus, po; 4 μmol/kg intragastric, latency 2.0 hours after administration, hot plate 55° C.; read-out: PTE %
Procedure: (§1) ICR mice, 18-22 g, half of them being male and the other half being female, provided by the Department of Laboratory Animals, Peking University (License No.: SCXK (Beijing) 2016-0010).
The temperature of hot plate was adjusted to 55° C., and the responses of mouse such as licking hind feet and jumping were used as the observation indexes. The time from the placement of mice on copper plate to the appearance of the above responses was defined as latency time. The latency time was measured for three times 30 minutes before administration, and the average value thereof was used as basic threshold, or baseline latency (BL). The animals with a latency time greater than 15 s and less than 5 s were removed, and the residual mice were randomly grouped, 8 animals per group.
Vehicle control group (double-distilled water) and groups for samples to be tested (the compounds and doses thereof were shown in Table 1) were set. All drugs were dissolved in […] before administration, and given by intragastric administration. The latency time was measured 2.0 hours after administration. Percentage of Pain Threshold Elevated Rate (PTE %) of compound on mice was calculated according to the following formula:
PTE %=(latency time of test group−latency time of vehicle control group)/latency time of vehicle control group×100

ICR mice [2] = experiment: Acetic acid writhing test; type: in vivo; design: key to Inhibition rate (%): Symbol “—” indicates that the data obtained at this dose was not significantly different from the vehicle control group; settings: 0.6% acetic acid ip two hours after administration; for Inhibition rate (%): 4 μmol/kg intragastric
Procedure: as §1
ICR mice, half of them being male and the other half being female, were randomly grouped, 8 mice per group. Vehicle control group (double-distilled water), ibuprofen control group, and groups for samples to be tested (the compounds and doses thereof were shown in Table 2) were set. All drugs were dissolved in double-distilled water before administration, and given by intragastric administration at predetermined doses. Two hours after the administration, the mice were intraperitoneally injected with 0.6% acetic acid solution (10 ml/kg, ip), and the number of times the mice writhed (abdomen depressed, buttock raised, body elongated) was recorded within 5-20 minutes. The inhibition rate % of compound on writhing pain in mice was calculated according to the following formula.
Inhibition rate %=(number of writhing times in vehicle control group−number of writhing times in test group)/number of writhing times in vehicle control group×100

ICR mice [3] = experiment: Formalin experiment; type: in vivo; settings: Mus musculus, po, 2 h, 2.5% formalin two hours after administration, phase II 10-60 minutes, read-out: Phase II pain inhibition rate (%); for inhibition in vivo at 4 µmol/kg: 4 μmol/kg intragastric
Procedure: as §1
ICR mice, half of them being male and the other half being female, were randomly grouped, 8 mice per group. Vehicle control group (double-distilled water) and groups for samples to be tested were set, in which the compounds and doses thereof were shown in Table 3. All drugs were dissolved in double-distilled water before administration, and given by intragastric administration at predetermined doses. Two hours after administration, the mice were injected with 20 ul of 2.5% formalin solution in the right hind foot, and the time (s) of licking or biting foot was recorded as an index of pain response, in which 0-5 minutes was phase I, 10-60 minutes was phase II, and the total observation time was 60 minutes. The phase II pain inhibition rate of compound in mice was calculated according to the following formula:
Inhibition rate %=(time of licking or biting foot in vehicle control group−time of licking or biting foot in test group)/time of licking or biting foot in vehicle control group×100

ICR mice [4] = experiment: Xylene-induced mouse ear swelling test (Effect Example 4); type: in vivo; design: key to Inhibition rate (%): Symbol “—” indicates that the data obtained at this dose was not significantly different from the vehicle control group; settings: 50 uL xylene two hours after administration; for inhibition in vivo at 4 µmol/kg: Mus musculus, po, 2 h, 4 μmol/kg intragastric, read-out: Inhibition rate (%)
Procedure: as §1
ICR mice were randomly grouped, 8 mice per group, half of them being male and the other half being female. Vehicle control group (double-distilled water) and groups for samples to be tested (the compounds and doses thereof were shown in Table 4). All drugs were dissolved in double-distilled water immediately before administration, and given by intragastric administration at predetermined doses. Two hours after administration, 50 uL of xylene was smeared evenly on the inner and outer sides of right ear of mouse. After 30 minutes, the left and right ears of mouse were cut, and circular ear pieces of the same size were punched at the same position on the left and right ears, and weighed. The ear swelling inhibition rate of compound in mice was calculated according to the formula.
Inhibition rate %=(degree of ear swelling in vehicle control group−degree of ear swelling in test group)/degree of ear swelling in vehicle control group×100

CCI rats [5] = experiment: Mechanical stimulation paw withdrawal threshold (MWT) in CCI rats; type: in vivo, SD rats; settings: 100 mg/kg i.g. daily; for inhibition rate (absolute %): PTE % vs vehicle; for MWT: mean±SEM; for inhibition rate (relative %): relative to sham minus vehicle
Procedure: (§2) SD rats, body weight 180 g-220 g, half of them being male and the other half being female, provided by the Department of Laboratory Animals, Peking University. The rats were raised in a standard environment with temperature of 22±0.5° C. and relative humidity of 55±5%, 12 h/12 h light-dark cycle, and fed with standard feed.
(§3) Rat was anesthetized with pentobarbital sodium (60 mg/kg, i.p.), the right hind limb was surgically shaved, fixed in the prone position, a longitudinal incision was made along the middle of the right hind limb of the rat, the muscle was bluntly separated, the sciatic nerve was exposed, and the sciatic nerve bifurcate proximal end was loosely ligated with 4-0 silk suture for 4 times, with an interval of about 1 mm each time, in which the degree of tightness was suitable when it was observed that the right hind leg was slightly shaken. After ligation, the muscle and skin were sutured in sequence. For the sham-operated group, the sciatic nerve was only exposed, but not ligated. The success of modeling was determined by observing whether the hind limb of the rat's operation side was closed, slightly valgus and often vacated, and by measuring the mechanical stimulation paw withdrawal threshold and the thermal stimulation paw withdrawal latency of the rat.
(§4) Before surgery, the mechanical stimulation paw withdrawal thresholds and the thermal stimulation paw withdrawal latencies in the rats were determined, and the rats were grouped as: sham operation group (sham), vehicle group (double-distilled water, i.g.), DXL-A-22 group (2 mg/kg, i.g.), DXL-A-24 group (1 mg/kg, i.g.), and Gabapentin group (100 mg/kg, i.g.). All compounds and drugs were dissolved in double-distilled water, and given by intragastric administration at 1 mL/100 g. From the first day after surgery, the administration was carried out every day, and the mechanical stimulation paw withdrawal threshold and the thermal stimulation paw withdrawal latency were measured 2 hours after administration.
The mechanical stimulation paw withdrawal threshold (MWT) of rats was detected by von Frey electronic pain tester. The measurement was carried out on the days 5, 7 and 14 after operation. The rats were placed in a transparent plexiglass box (whose bottom was a wire mesh with a gap of 1 mm^2) to adapt to the environment for 30 min. After the rats had no exploration action, the von Frey electronic pain tester was used to stimulate the middle position of paw at the operation side of the rat, and the maximum force caused by rat paw withdrawal response (i.e., MWT) was recorded. The inhibition rate of the compound was calculated according to the following formula:
Absolute increase rate (i.e., PTE %): PTE %=(MWT of test group−MWT of vehicle group)/MWT of vehicle group×100 (1)
Relative increase rate: Inhibition rate %=(MWT of test group−MWT of vehicle group)/(MWT of Sham operation group−MWT of vehicle group)×100 (2)

CCI rats [6] = experiment: Thermal stimulation paw withdrawal latency (PWL) in CCI rats; type: in vivo, SD rats; settings: 100 mg/kg i.g. daily; for PWL: hot plate 50.5° C., cut-off 14s, mean±SEM
Procedure: as §2, §3, §4
The thermal stimulation paw withdrawal latency (PWL) was measured by a hot plate method. The measurement was carried out on the days 5, 7 and 14 after operation. The temperature of the hot plate was 50.5° C. Timing started when the rat was placed on the hot plate, and stopped when the shaking and foot licking responses of the rat appeared, and this time was the PWL of the rat. The hot plate cut-off time was 14s, and the percentage of analgesia (i.e., MPE %) was calculated according to formula (3):
MPE %=(PWL of test group−PWL of vehicle group)/(cut-off time−PWL of vehicle group)×100 (3)

[7] = Day 5 after operation, section 3.1
[8] = Day 5 after operation, section 3.3
[9] = Day 7 after operation, section 3.1
[10] = Day 7 after operation, section 3.3
[11] = Day 14 after operation, section 3.1
[12] = Day 14 after operation, section 3.3
[13] = Day 5 after operation, section 3.2
[14] = Day 5 after operation, section 3.4
[15] = Day 7 after operation, section 3.2
[16] = Day 7 after operation, section 3.4
[17] = Day 14 after operation, section 3.2
[18] = Day 14 after operation, section 3.4

FC(F)(F)c1cc(N2CC[N+]3(CCCC3)CC2)cc(C(F)(F)F)c1 [DXL-A-27, 8-(3,5-bis(trifluoromethyl)phenyI)-5,8-diazaspiro[4.5]decan-5-ium bromide]
change in vivo at 4 µmol/kg (ICR mice [1]): 49%
Inhibition rate (%) (ICR mice [2]): —
inhibition in vivo at 4 µmol/kg (ICR mice [3]): 20.1%
inhibition in vivo at 4 µmol/kg (ICR mice [4]): 4.13%

Fc1ccccc1N1CC[N+]2(CCCC2)CC1.[Br-] [DXL-A-18, 8-(2-fluorophenyl)-5,8-diazaspiro[4.5]decan-5-ium bromide]
inhibition in vivo at 1 mg/kg (ICR mice [2]; Mus musculus, po, 2 h, 1 mg/kg intragastric, read-out: Inhibition rate (%)): 21.7%
inhibition in vivo at 1 mg/kg (ICR mice [3]; 1 mg/kg intragastric): 22%
Inhibition rate (%) (ICR mice [4]; 1 mg/kg intragastric): —

O=[N+]([O-])c1cc(N2CC[N+]3(CCCC3)CC2)cc(C(F)(F)F)c1 [DXL-A-28, 8-(3-nitro-5-(trifluoromethyl)phenyI)-5,8-diazaspiro[4.5]decan-5-ium bromide]
change in vivo at 4 µmol/kg (ICR mice [1]): 36%
Inhibition rate (%) (ICR mice [2]): —
inhibition in vivo at 4 µmol/kg (ICR mice [3]): 13.3%
inhibition in vivo at 4 µmol/kg (ICR mice [4]): 9.27%

NCC1(CC(=O)O)CCCCC1 [Gabapentin, reference compound]
inhibition rate (absolute %) (CCI rats [5]; [7]): 99.36%
inhibition rate (absolute %) (CCI rats [5]; [8]): 87.98%
MWT (CCI rats [5]; [7]): 21.73 ± 0.49**/
MWT (CCI rats [5]; [8]): 21.73 ± 0.49**/
inhibition rate (relative %) (CCI rats [5]; [7]): 40.08%
inhibition rate (relative %) (CCI rats [5]; [8]): 41.04%
inhibition rate (absolute %) (CCI rats [5]; [9]): 128.67%
inhibition rate (absolute %) (CCI rats [5]; [10]): 123.00%
MWT (CCI rats [5]; [9]): 23.37 ± 1.34**/
MWT (CCI rats [5]; [10]): 23.37 ± 1.34**/
inhibition rate (relative %) (CCI rats [5]; [9]): 47.56%
inhibition rate (relative %) (CCI rats [5]; [10]): 49.94%
inhibition rate (absolute %) (CCI rats [5]; [11]): 101.42%
inhibition rate (absolute %) (CCI rats [5]; [12]): 83.36%
MWT (CCI rats [5]; [11]): 21.27 ± 0.82**/
MWT (CCI rats [5]; [12]): 21.27 ± 0.82**/
inhibition rate (relative %) (CCI rats [5]; [11]): 38.46%
inhibition rate (relative %) (CCI rats [5]; [12]): 36.91%
PWL (CCI rats [6]; [13]): 11.37 ± 0.32**/
PWL (CCI rats [6]; [14]): 11.37 ± 0.32**/
MPE(%) (CCI rats [6]; [13]): 59.72%
MPE(%) (CCI rats [6]; [14]): 54.02%
PWL (CCI rats [6]; [15]): 11.76 ± 0.34**/
PWL (CCI rats [6]; [16]): 11.76 ± 0.34**/
MPE(%) (CCI rats [6]; [15]): 66.16%
MPE(%) (CCI rats [6]; [16]): 62.48%
PWL (CCI rats [6]; [17]): 11.88 ± 0.40**/
PWL (CCI rats [6]; [18]): 11.88 ± 0.40**/
MPE(%) (CCI rats [6]; [17]): 66.51%
MPE(%) (CCI rats [6]; [18]): 67.88%

CC(C)Cc1ccc(C(C)C(=O)O)cc1 (stereo not drawn) [Ibuprofen table, Ibuprofen, reference compound]
inhibition in vivo at 200 mg/kg (ICR mice [2]; Mus musculus, po, 2 h, 200 mg/kg intragastric, read-out: Inhibition rate (%)): 49.1%
